# Results as given in ChEMBL document CHEMBL1201862, “PubChem BioAssay data set” (2004).
#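 In this assay, cells in 96-well plates receive the compound at five concentrations for 48 hours. Endpoints are linearly interpolated between the surrounding concentrations. The concentration for 50% growth inhibition is given as GI50.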 The source made the active and inactive calls. Rule as the data show it: active = GI50 up to about 1.1 µM and inactive = higher.
# Key:
# Assay in all cases: inhibition of tumour cell growth, NCI panel, 48 h
# [1] = tested on: MOLT-4
# [2] = tested on: MCF7
# [3] = tested on: Malme-3M
# [4] = tested on: CCRF-CEM
# [5] = tested on: RPMI-8226
# [6] = tested on: RXF 393
# [7] = tested on: MDA-MB-231
# [8] = tested on: ACHN
# [9] = tested on: U-251
# [10] = tested on: MDA-N
# [11] = tested on: SK-MEL-28
# [12] = tested on: TK-10
# [13] = tested on: SF-295
# [14] = tested on: M14
# [15] = tested on: T47D
# [16] = tested on: A549
# [17] = tested on: NCI/ADR-RES
# [18] = tested on: HCT-15
# [19] = tested on: SF-539
# [20] = tested on: SW-620
Compound,GI50 [1],GI50 [2],GI50 [3],GI50 [4],GI50 [5],GI50 [6],GI50 [7],GI50 [8],GI50 [9],GI50 [10],GI50 [11],GI50 [12],GI50 [13],GI50 [14],GI50 [15],GI50 [16],GI50 [17],GI50 [18],GI50 [19],GI50 [20]
O=c1[nH]c(=O)n(C2CC(O)C(CO)O2)cc1Oc1ccccc1 (stereo not drawn),> 100 µM (inactive),> 100 µM (inactive),> 100 µM (inactive),> 100 µM (inactive),> 100 µM (inactive),> 100 µM (inactive),> 100 µM (inactive),> 100 µM (inactive),> 100 µM (inactive),> 100 µM (inactive),> 100 µM (inactive),> 100 µM (inactive),47.4 µM (inactive),> 100 µM (inactive),> 100 µM (inactive),> 100 µM (inactive),> 100 µM (inactive),> 100 µM,–,–
Oc1ccc(Cl)cc1-c1cc(-c2ccccc2)nc(NCN2CCCCC2)n1,> 100 µM (inactive),2.78 µM (inactive),> 100 µM (inactive),–,> 100 µM (inactive),> 100 µM (inactive),> 100 µM (inactive),24.2 µM (inactive),> 100 µM (inactive),> 100 µM (inactive),> 100 µM (inactive),> 100 µM (inactive),–,> 100 µM (inactive),> 100 µM (inactive),> 100 µM (inactive),> 100 µM (inactive),5.02 µM,> 100 µM (inactive),> 100 µM (inactive)
Cn1c(=O)c2[nH]c(N=O)nc2n(C)c1=O,> 100 µM (inactive),> 100 µM (inactive),> 100 µM (inactive),–,> 100 µM (inactive),> 100 µM (inactive),> 100 µM (inactive),–,> 100 µM (inactive),> 100 µM (inactive),> 100 µM (inactive),> 100 µM (inactive),> 100 µM (inactive),> 100 µM (inactive),> 100 µM (inactive),> 100 µM (inactive),> 100 µM (inactive),> 100 µM,> 100 µM (inactive),> 100 µM (inactive)
CCOC(=O)c1nc2ccc(C(F)(F)F)cc2nc1Nc1ccc(F)cc1,> 100 µM (inactive),> 100 µM (inactive),> 100 µM (inactive),> 10 µM (inactive),–,38.5 µM (inactive),> 10 µM (inactive),> 100 µM (inactive),–,> 100 µM (inactive),> 100 µM (inactive),92.3 µM (inactive),49.2 µM (inactive),> 100 µM (inactive),> 100 µM (inactive),28.8 µM (inactive),> 100 µM (inactive),> 100 µM,57.5 µM (inactive),> 100 µM (inactive)
Cc1c(C)c(S(=O)(=O)N(CCCN)OCCCN)c(C)c2c1OC(C)(C)CC2,4.61 µM (inactive),15.4 µM (inactive),13.6 µM (inactive),10.2 µM (inactive),17.6 µM (inactive),9.04 µM (inactive),4.63 µM (inactive),16.1 µM (inactive),11.9 µM (inactive),15.8 µM (inactive),15.2 µM (inactive),14.7 µM (inactive),16.3 µM (inactive),14.3 µM (inactive),16.9 µM (inactive),15.6 µM (inactive),25.7 µM (inactive),15.8 µM,–,15.1 µM (inactive)
CCCCCCCCCCCCn1c(=O)cc(NCCCC)c2cc3c(NCCCC)cc(=O)n(CCCCCCCCCCCC)c3nc21,> 100 µM (inactive),> 100 µM (inactive),> 100 µM (inactive),–,> 100 µM (inactive),–,> 100 µM (inactive),> 100 µM (inactive),> 100 µM (inactive),> 100 µM (inactive),> 100 µM (inactive),> 100 µM (inactive),> 100 µM (inactive),> 100 µM (inactive),> 100 µM (inactive),> 100 µM (inactive),> 100 µM (inactive),> 100 µM,–,–
COc1ccc(/C=C(/C#N)C(N)=O)c(OC)c1,> 100 µM (inactive),44 µM (inactive),–,26.8 µM (inactive),> 100 µM (inactive),> 100 µM (inactive),> 100 µM (inactive),> 100 µM (inactive),> 100 µM (inactive),19.3 µM (inactive),> 100 µM (inactive),> 100 µM (inactive),82.8 µM (inactive),41.3 µM (inactive),> 100 µM (inactive),> 100 µM (inactive),> 100 µM (inactive),60.8 µM,> 100 µM (inactive),79.3 µM (inactive)
COc1ccc2cc(C(=O)Nc3ccc(O)c(C(=O)O)c3)ccc2c1OC,> 100 µM (inactive),> 100 µM (inactive),> 100 µM (inactive),> 100 µM (inactive),> 100 µM (inactive),–,> 100 µM (inactive),> 100 µM (inactive),> 100 µM (inactive),> 100 µM (inactive),> 100 µM (inactive),> 100 µM (inactive),–,> 100 µM (inactive),> 100 µM (inactive),–,> 100 µM (inactive),> 100 µM,> 100 µM (inactive),> 100 µM (inactive)
